The values that follow come from patent US20120270237A9, “METHODS FOR THE IDENTIFICATION OF KINASE INTERACTING MOLECULES AND FOR THE PURIFICATION OF KINASE PROTEINS” (Cellzone AG, priority 2009, published 2012).

Assay in all cases: Kinobeads competition binding, HeLa Placenta lysate mix
Holding throughout (details): 10 μM free compound

The target in one test is Erk2 (Homo sapiens, UniProt P28482). Also noted: capturing and identification of kinases from mixed HeLa placenta lysates; endogenous in cells; host or cells: mixed lysate of HeLa cells and placenta tissue. The protocol: (§1) To one aliquot of cell lysate 10 μM of the free compound (FIG. 3, CZC31326) was added and allowed to bind to proteins in the lysate. Then the affinity matrix with the immobilized compound was added to capture proteins that were not interacting with the previously added free compound. Beads were separated from the lysate and bead bound proteins were eluted in SDS sample buffer and subsequently separated by SDS-Polyacrylamide gel electrophoresis (FIG. 10). Suitable gel bands were cut out and subjected to in-gel proteolytic digestion with trypsin. The second lysate aliquot was processed identically, however no free compound was added (DMSO solvent control). Peptides originating from samples 1 and 2 were labeled with iTRAQ reagents (iTRAQ 114 and iTRAQ 117) and the combined samples were analyzed with a nano-flow liquid chromatography system coupled online to a tandem mass spectrometer (LC-MS/MS) experiment followed by iTRAQ reporter ion quantification in the MS/MS spectra as described in Example 2.

Another test addresses FES (Homo sapiens, UniProt P07332). Details: capturing and identification of kinases from mixed HeLa placenta lysates; endogenous in cells; host or cells: mixed lysate of HeLa cells and placenta tissue. The protocol:
as §1

In a further test the target is T1, GCK (Homo sapiens, UniProt Q12851).
T1 sequence (Q12851 1-820): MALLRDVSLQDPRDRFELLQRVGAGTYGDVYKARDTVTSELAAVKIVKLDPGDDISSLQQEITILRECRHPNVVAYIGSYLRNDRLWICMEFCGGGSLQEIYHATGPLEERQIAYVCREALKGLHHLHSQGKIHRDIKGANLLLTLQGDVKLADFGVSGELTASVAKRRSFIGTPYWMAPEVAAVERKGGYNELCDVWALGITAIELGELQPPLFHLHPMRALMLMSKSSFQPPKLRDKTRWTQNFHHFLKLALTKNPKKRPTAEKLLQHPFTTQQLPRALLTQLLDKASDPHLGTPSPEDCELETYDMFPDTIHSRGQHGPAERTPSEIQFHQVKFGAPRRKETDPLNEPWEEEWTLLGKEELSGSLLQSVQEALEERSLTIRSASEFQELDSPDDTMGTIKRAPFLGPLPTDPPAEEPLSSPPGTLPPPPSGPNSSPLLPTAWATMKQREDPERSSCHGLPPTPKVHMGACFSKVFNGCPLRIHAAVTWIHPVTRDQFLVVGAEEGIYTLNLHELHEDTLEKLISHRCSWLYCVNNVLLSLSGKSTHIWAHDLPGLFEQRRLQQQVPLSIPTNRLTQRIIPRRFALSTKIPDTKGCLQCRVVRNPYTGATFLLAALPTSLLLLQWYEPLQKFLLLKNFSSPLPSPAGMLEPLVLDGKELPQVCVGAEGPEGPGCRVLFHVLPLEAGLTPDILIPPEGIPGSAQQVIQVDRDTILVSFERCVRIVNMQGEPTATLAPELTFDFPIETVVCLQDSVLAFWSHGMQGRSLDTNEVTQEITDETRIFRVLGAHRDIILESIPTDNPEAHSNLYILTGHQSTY
Details: capturing and identification of kinases from mixed HeLa placenta lysates; endogenous in cells; host or cells: mixed lysate of HeLa cells and placenta tissue. The protocol: as §1

For another test, the target named is T2, TEC (Homo sapiens, UniProt P42680).
T2 sequence (P42680 1-631): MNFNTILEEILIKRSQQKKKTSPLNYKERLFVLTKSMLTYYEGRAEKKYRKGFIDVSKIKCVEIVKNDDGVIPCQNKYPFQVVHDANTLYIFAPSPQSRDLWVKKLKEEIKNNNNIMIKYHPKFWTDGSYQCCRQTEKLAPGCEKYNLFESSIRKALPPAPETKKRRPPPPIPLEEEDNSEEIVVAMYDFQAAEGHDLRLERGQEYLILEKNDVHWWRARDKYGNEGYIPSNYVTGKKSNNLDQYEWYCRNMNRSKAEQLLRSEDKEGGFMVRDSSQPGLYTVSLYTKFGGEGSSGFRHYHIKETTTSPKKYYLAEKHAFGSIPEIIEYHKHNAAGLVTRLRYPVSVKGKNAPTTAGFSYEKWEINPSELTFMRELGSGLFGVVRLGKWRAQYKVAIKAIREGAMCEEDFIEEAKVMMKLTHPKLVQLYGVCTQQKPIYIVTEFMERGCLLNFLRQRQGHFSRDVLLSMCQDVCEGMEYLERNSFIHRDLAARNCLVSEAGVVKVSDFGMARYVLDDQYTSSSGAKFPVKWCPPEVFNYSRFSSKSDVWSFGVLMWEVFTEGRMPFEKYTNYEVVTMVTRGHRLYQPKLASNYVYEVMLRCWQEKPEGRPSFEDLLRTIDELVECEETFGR
Also noted: kinases from mixed HeLa placenta lysates; endogenous in cells; host or cells: mixed lysate of HeLa cells and placenta tissue. The protocol:
as §1

The target of the next test is YES (Homo sapiens, UniProt P07947). Also noted: kinases from mixed HeLa placenta lysates; endogenous in cells; host or cells: mixed lysate of HeLa cells and placenta tissue. How it is done:
as §1

In general, inhibition refers to the share of the control response that was lost under treatment. The low end stands for a weak effect, the high end for a strong effect.

Erk2, sequence (P28482 whole entry): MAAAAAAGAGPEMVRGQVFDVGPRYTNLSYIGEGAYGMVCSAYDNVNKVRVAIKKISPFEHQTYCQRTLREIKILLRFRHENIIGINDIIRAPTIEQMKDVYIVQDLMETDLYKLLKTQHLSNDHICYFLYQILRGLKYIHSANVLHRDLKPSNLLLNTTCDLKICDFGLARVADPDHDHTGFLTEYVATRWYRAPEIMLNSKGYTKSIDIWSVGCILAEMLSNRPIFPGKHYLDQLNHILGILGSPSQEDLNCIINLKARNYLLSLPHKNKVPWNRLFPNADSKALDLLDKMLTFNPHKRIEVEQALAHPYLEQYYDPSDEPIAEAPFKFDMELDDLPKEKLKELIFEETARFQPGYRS
FES, sequence (P07332 whole entry): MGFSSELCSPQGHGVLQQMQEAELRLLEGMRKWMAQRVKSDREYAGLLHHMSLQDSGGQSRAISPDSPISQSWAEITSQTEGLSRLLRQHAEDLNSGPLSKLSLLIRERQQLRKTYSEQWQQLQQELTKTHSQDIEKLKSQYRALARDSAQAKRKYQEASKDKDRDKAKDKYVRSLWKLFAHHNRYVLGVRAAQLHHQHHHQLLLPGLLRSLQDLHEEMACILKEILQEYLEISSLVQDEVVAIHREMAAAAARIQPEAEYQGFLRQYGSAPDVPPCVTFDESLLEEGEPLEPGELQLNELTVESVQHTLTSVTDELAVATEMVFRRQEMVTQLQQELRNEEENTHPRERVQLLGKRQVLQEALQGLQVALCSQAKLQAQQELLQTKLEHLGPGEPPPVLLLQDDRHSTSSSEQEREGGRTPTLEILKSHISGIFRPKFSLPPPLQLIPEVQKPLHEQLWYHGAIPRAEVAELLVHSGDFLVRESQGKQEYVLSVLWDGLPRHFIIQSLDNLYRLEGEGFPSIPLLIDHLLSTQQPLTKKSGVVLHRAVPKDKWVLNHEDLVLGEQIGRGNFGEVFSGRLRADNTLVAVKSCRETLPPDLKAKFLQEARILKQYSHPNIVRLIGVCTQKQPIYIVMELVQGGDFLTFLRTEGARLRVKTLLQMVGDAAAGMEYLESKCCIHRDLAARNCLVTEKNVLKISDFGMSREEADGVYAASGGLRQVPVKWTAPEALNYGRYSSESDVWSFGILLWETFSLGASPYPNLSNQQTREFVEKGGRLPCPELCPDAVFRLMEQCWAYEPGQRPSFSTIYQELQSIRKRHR
YES, sequence (P07947 whole entry): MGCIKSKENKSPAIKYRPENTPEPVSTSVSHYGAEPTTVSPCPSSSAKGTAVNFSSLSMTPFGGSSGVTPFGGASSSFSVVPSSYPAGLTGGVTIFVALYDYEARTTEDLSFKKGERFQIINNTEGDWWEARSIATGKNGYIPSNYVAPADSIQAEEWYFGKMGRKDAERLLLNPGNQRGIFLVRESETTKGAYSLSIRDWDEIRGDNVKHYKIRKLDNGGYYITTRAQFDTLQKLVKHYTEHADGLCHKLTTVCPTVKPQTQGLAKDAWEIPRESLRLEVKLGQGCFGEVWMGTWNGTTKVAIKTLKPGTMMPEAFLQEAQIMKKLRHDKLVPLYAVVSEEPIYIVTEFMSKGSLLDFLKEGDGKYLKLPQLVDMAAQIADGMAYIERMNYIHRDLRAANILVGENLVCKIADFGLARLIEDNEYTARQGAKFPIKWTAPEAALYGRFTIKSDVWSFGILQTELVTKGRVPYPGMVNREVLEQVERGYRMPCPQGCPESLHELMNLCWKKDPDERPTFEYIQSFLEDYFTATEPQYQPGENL

Turning to `CS(=O)(=O)Nc1ccccc1Nc1nc(Nc2cccc(OCCN)c2)ncc1Cl` [CZC31326, N-(2-(2-(3-(2-aminoethoxy)phenylamino)-5-chloropyrimidin-4-ylamino)phenyl)methanesulfonamide], the inhibition at 10 µM is 68.5% at Erk2; 95.1% at FES; 93.8% on GCK; 89.2% on TEC; 90.3% at YES.
